“Also recorded” adds a separate entry of the source.
How the values were obtained:
HT-2 cells = assay: IL-2/IL-4 in supernatants of virus-restimulated MLN lymphocytes, HT-2 cell 3H-thymidine incorporation; format: cell-based, C57BL/6 mice
Description: (§1) Lymphocytes from MLN of the control group and IL-12 treated group of C57BL/6 mice were harvested 28 days after administration of H5.010CBALP and restimulated in vitro with UV-inactivated H5.010CMVlacZ at 10 particles/cell for 24 hours. Cell-free supernatants were assayed for the presence of IL-2 or IL-4 on HT-2 cells (an IL-2 or IL-4-dependent cell line) [Yang I, cited above]. Presence of IFN-γ in the same lymphocyte culture supernatant was measured on L929 cells as described [Yang I, cited above]. Stimulation index (S.I.) was calculated by dividing ^3H-thymidine cpm incorporated into HT-2 cells cultured in supernatants of lymphocytes restimulated with virus by ^3H-thymidine cpm incorporated into HT-2 cells cultured in supernatants of lymphocytes incubated in antigen-free medium.

L929 cells = assay: IFN-γ in the same lymphocyte culture supernatant measured on L929 cells; format: cell-based, C57BL/6 mice; conditions: MLN lymphocytes day 28, restimulated with virus
Description: as §1

[1] = tested on: human Ad5 recombinant vector; assay: Neutralizing antibody to adenovirus in BAL (Hela cell lacZ transduction); format: in vivo, C57BL/6 mice; conditions: day 28, versus control mice
Description: BAL samples obtained from animals 28 days after primary exposure to recombinant virus were evaluated for neutralizing antibodies to adenovirus and anti-adenovirus antibody isotypes as follows. The same four groups of C57BL/6 mice, i.e., control, CD4^+ depleted, IL-12 treated and IFN-γ treated, were infected with H5.010BALP. Neutralizing antibody was measured in serially-diluted BAL samples (100 μl) which were mixed with H5.010CBlacZ (1×10^6 pfu in 20 μl), incubated for 1 hour at 37° C., and applied to 80% confluent Hela cells in 96 well plates (2×10^4 cells per well). After 60 minutes of incubation at 37° C., 100 μl of DMEM containing 20% FBS was added to each well. Cells were fixed and stained for β-galactosidase expression the following day.
The results are shown graphically in FIGS. 1A through 1C, which summarize neutralizing antibody titer, and the relative amounts (OD405) of IgG and IgA present in BAL samples.

[2] = tested on: recombinant adenoviruses H5.010CBALP and H5.010CMVlacZ; assay: Liver-directed adenovirus gene transfer and readministration (Example 3); format: in vivo, C57BL/6 mice
Description: Experiments substantially identical to those described in Example 2 above were conducted in which viral vectors were administered into the blood for introduction of the transgene into the liver (rather than intratracheal delivery into the lung).
Female C57BL/6 mice (6-8 weeks old) were injected with suspensions of H5.010CBALP (1×10^9 pfu in 50 μl of PBS) i.p. at day 0 and similarly with H5.010CMVlacZ at day 28. One group of such mice was used as a control. Another group of mice was acutely depleted of CD4^+ cells by i.p. injection of antibody to CD4^+ cells (GK1.5; ATCC No. TIB207, 1:10 dilution of ascites) at the time of the initial gene therapy (days −3, 0, and +3). A third group of mice was injected with IL-12 (2 μg, i.p. injections) at the time of the first administration of virus (days 0 and +1). A fourth group of mice was injected with gamma interferon (2 μg, i.p. injections) at the time of the first administration of virus (days 0 and +1) .
When mice were subsequently euthanized and necropsied at days 3, 28, or 31, liver tissues were prepared for cryosections according to the procedures used above for lung tissue in Example 2.
The cryosection results were substantially similar for liver-directed gene therapy according to this method as for the lung-directed therapy of Example 2 above. The results described below were obtained from the alkaline phosphatase histochemical stains (magnification ×100) or β-galactosidase X-gal stains (magnification ×100).

[3] = tested on: adenovirus (H5.010CMVlacZ); assay: Neutralizing antibody to adenovirus in serum; format: in vivo, C57BL/6 mice; conditions: IL-12 i.p., liver-directed
Description: Mice from each group were subsequently euthanized and liver tissues evaluated for lacZ expression by X-gal histochemistry (magnification ×100) at day 3 and day 28; and for ALP expression by histochemical staining at day 31 (magnification ×100). Development of neutralizing antibody to adenovirus in each group of mice was examined in serum samples obtained at day 28.
Serum samples were also collected at days 0, 3, 7, 14, 21, 28, 35 and 42 from each group of animals and assayed for neutralizing antibody titer. Serum samples were incubated at 56° C. for 30 minutes and then diluted in DMEM in twofold steps starting from 1:20. Each serum dilution (100 μl) was mixed with H5.010CMVlacZ (2×10^6 pfu in 20 μl), incubated for 1 hour at 37° C., and applied to 80% confluent Hela cells in 96-well plates (2×10^4 cells per well). After 60 minutes incubation at 37° C., 100 μl of DMEK containing 20% FBS were added to each well. Cells were fixed and stained for β-galactosidase expression on the following day. All of the cells stained blue in the absence of serum samples. […] FIGS. 3A-3D report the antibody titer expressed as a function of days post-infection.

[4] = tested on: virus-infected C57SV cells; assay: CTL 51Cr release assay of restimulated splenocytes, IL-12 (Example 6B); format: cell-based, C57BL/6 mice; conditions: ALP virus, IL-12 i.p.; 51Cr release on virus-infected target cells
Description: B. Splenocytes harvested from C57BL/6 mice (“B6”) and IL-12-treated C57BL/6 mice (“B6+IL12”) of Example 5 were restimulated in vitro 10 days after administration of H5.010CBALP with H5.010CMVlacZ for 5 days in DMEM supplemented with 5% FBS and […] 2-mercaptoethanol. These cells were tested for specific lysis on mock-infected (“mock”) and H5.010CBALP (“ALP”)-infected C57SV cells in a 6 hour ^51Cr release assay performed subsequently using the following ratios of effector to target cells (c57SV, H-2^b) in 200 μl DMEM with 10% FBS in V-bottom 96-well plates (E:T=50:1, 25:1, 12:1, 6:1, 5:1 and 3:1).
Prior to mixing with the effector cells, target cells (1×10^6) were labeled with 100 μCi of ^51Cr after a 24 hr-infection with H5.010CMVlacZ at an moi of 50 and used at 5×10^3 cells/well. After incubation for 6 hr, aliquots of 100 μl supernatant were removed for counting in a gamma counter.

interleukin-12 [IL-12] was tested, and the “3H-Thymidine Incorporation (cpm ± SD), Medium” value (HT-2 cells; MLN lymphocytes 28 days after H5.010CBALP, antigen-free medium) was 247 ± 34 cpm, the “3H-Thymidine Incorporation (cpm ± SD), H5.010CMVlacZ” value (HT-2 cells; MLN lymphocytes day 28, restimulated with UV-inactivated H5.010CMVlacZ 24 hours) was 5203 ± 28 cpm and the “3H-Thymidine Incorporation (cpm ± SD), H5.010CMVlacZ” value (HT-2 cells; as E2, with anti-IL2 (1:5000)) was 776 ± 50 cpm. The “3H-Thymidine Incorporation (cpm ± SD), H5.010CMVlacZ” value (HT-2 cells; as E2, with anti-IL4 (1:5000)) was 4608 ± 52 cpm, the “ratio of IL-2/IL-4” value (HT-2 cells; lymphocytes stimulated in vitro with virus, 3 without IL-12) was 6 and the “S.I. (stimulation index)” value (HT-2 cells; virus restimulated / antigen-free medium) was 21.07. For the same substance, the “S.I. (stimulation index)” value (HT-2 cells; with anti-IL2 (1:5000)) was 3.14, the “S.I. (stimulation index)” value (HT-2 cells; with anti-IL4 (1:5000)) was 18.66 and the “[formula] (column head not readable; IFN-γ in supernatant)” value (L929 cells) was 160. For the same substance, the “reduction of neutralizing antibody in BAL” value [1] was 20 fold, the “transgene expression after first administration of virus (ALP)” value ([2]; liver, days 3 and 28) was “diminished after about one month” and the “gene transfer upon second administration of virus (lacZ)” value ([2]; liver, readministered day 28, read day 31) was “some gene transfer to the liver via the blood was achieved”. The neutralizing antibodies ([2]; liver-directed gene therapy, Example 3) was “the level of neutralizing antibody was reduced”, the “reduction in neutralizing antibody” value [3] was 3 fold and the “adenovirus-specific CTL activity” value [4] was “did not increase adenovirus-specific CTL activity; also recorded: unaffected”.

From patent US6372208B1, “Method of reducing an immune response to a recombinant virus” (The Trustees of the University of Pennsylvania, priority 1996, dated 2002)
